In patent publication US20230346791A1, “ATR INHIBITORS FOR THE TREATMENT OF CANCER” (AstraZeneca AB, priority 2020, published 2023):
Like-named read-outs stand apart in the source and are kept apart here.

Settings: for dose-limiting toxicity (DLT): cohort of n=6 evaluable patients
Experimental: Overall Study Design: The study consisted of two parts, each evaluating the safety and tolerability of AZD6738 when given in combination with paclitaxel. An oral formulation of AZD6738 was used. The first part (Part A) was in combination with paclitaxel; the starting dose of 40 mg AZD6738 OD was escalated to reach a maximum tolerated dose in patients with advanced solid malignancies, as defined by dose-limiting toxicity. […] We made the number and doses of these cohorts flexible so that we could make adjustment as the PK data emerged. […] Dose escalations were conducted in each cohort independently; however, number and doses of the cohorts were to be subject to change as the PK data emerged.
Part A: We conducted a phase I trial for determining maximal tolerate dose (MTD) of AZD6738 when given in combination with fixed dose of paclitaxel in patients with refractory cancer. We used a rolling 6 design in this PART A. Treatment schedule was as follows. Start regimen (every 4 weeks): 40 mg OD dosing of AZD6738, 3 weeks on/ 1 week off; paclitaxel 80 mg/m2 on day 1, 8, 15 This part was in combination with paclitaxel of standard dose; starting dose of 40 mg AZD6738 OD was escalated to reach a maximum tolerated dose in metastatic solid cancer patients. Each cycle was composed of 4 weeks. The decision to dose escalate was to be made upon the assessment of the safety and tolerability data collected up until the time of study drug administration on Cycle 2, Day 1. This DLT assessment period was selected as the major toxicities leading to cessation of dose escalation in such studies (haematological, gastrointestinal, liver enzymes) were anticipated to present within this duration. Doses and/or schedules of AZD6738 were to be defined by the SRC. The cohort size of at least 3 and up to 6 patients (‘rolling six design’) was employed to improve the rate of accrual of patients to cohorts close to the presumed therapeutic dose by reducing the need for late replacement of patients who become non-evaluable during the DLT assessment period, whilst not compromising collection of safety data. […]

C[C@@H]1COCCN1c1cc(C2([S@](C)(=N)=O)CC2)nc(-c2cc[nH]c3nccc2-3)n1 [AZD6738, 4-{4-[(3R)-3-methylmorpholin-4-yl]-6-[1-((R)-S-methylsulfonimidoyl)cyclopropyl]pyrimidin-2-yl}-1H-pyrrolo[2,3-b]pyridine]
dose-limiting toxicity (DLT) (AZD6738 160 mg BD days 1-14 with paclitaxel): One dose-limiting toxicity (DLT) of neutropenic fever
dose-limiting toxicity (DLT) (AZD6738 240 mg BD days 1-14 with paclitaxel): One dose-limiting toxicity (DLT) of neutropenic fever
maximum tolerated dose of AZD6738 (days 1-14 of 28-day cycle, with paclitaxel 80 mg/m2, per protocol): 240 mg BID
